Experimental data published in US20050020612A1, “4-Aryliquinazolines and the use thereof as nhe-3 inhibitors” (priority 2001, published 2005).
Counter-ions that a name gives are not always drawn.

| SMILES | melting point |
| --- | --- |
| Cc1ccc(-c2nc(NN=C(N)N)nc3ccc(Cl)cc23)cc1 (as salt: HCl) [Example 10] | 289 to 290 °C |
| NC(N)=Nc1nc(-c2cccc(N3CCNCC3)c2)c2cc(Cl)ccc2n1 (as salt: HCl) [Example 225] | 241 °C |
